Source: patent US20150011566A1, “N-PHENYLPIPERAZINE DERIVATIVES THAT ARE ANTAGONISTS OF A1A, A1D ADRENOCEPTORS AND 5-HT1A RECEPTORS FOR THE TREATMENT OF BENIGN PROSTATE HYPERPLASIA, PHARMACEUTICAL COMPOSITIONS CONTAINING THE SAME” (UNIVERSIDADE FEDERAL DO RIO DE JANEIRO-UFRJ, priority 2012, published 2015)
Marks after values point to notes of the source that are not given here.

Columns and labels:
[1] = Acute toxicity test in Swiss mice (body temperature, behaviour for 14 days); format: in vivo; conditions: n=6; for T (° C.) Basal Measure: body temperature before treatment; for T (° C.) 30′ after LDT / T (° C.) 60′ after LDT: body temperature, 100 mg/kg ip
Experimental: Swiss mice (female, 25-30 g, 6 animals per condition) were treated with LDT via intraperitoneal with LTD's at a dose of […] and observed for 14 days in the behavioral framework according to described method (LORKE, D., Arch Toxicol, 54 (4): 275-87, 1983, modified). The temperature was measured by retal probe before and after 30 and 60 min of described treatment.

5-HT1A receptors = biological target: T1, 5-HT1A receptors (Homo sapiens, UniProt P08908); test: Cell proliferation in vitro, DU-145 cells stimulated with 5-HT (MTT); format: cell-based; conditions: for Proliferation percentage in relation to basel (100%) in the presence of LDT's, 5HT1A: 48 h; for inhibition of the effect of the 5-HT1A receptors stimulus on proliferation: LDT3 50 nM, LDT66 20 nM
T1 construct: endogenous in cells; host or cells: DU-145
T1 sequence (P08908 1-422): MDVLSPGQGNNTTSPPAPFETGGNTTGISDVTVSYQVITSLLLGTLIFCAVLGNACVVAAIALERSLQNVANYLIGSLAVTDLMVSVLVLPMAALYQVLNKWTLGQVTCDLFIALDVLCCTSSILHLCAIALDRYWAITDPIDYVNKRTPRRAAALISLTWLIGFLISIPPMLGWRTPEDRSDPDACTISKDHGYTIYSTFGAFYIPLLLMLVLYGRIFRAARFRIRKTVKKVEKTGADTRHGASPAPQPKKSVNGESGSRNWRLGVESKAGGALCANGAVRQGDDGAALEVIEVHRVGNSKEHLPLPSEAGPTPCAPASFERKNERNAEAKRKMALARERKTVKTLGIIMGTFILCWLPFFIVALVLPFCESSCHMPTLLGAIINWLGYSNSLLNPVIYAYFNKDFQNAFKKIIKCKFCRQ
Experimental: Human prostate cancer cells (DU-145) were cultured in medium (RPMI 1640) until confluence. Then the cells were dissociated, plated (5×10^3 cells/well) and maintained in medium free of fetal bovine serum for 24 hours. […] Cell proliferation was assessed by using the MTT technique (MOSMANN, T. Immunol Methods. 16; 65 (1-2):55-63, 1983).

α1D adrenoceptors = biological target: T2, α1D adrenoceptors (Rattus norvegicus, UniProt P23944); test: Phenylephrine-induced contraction inhibition in rat aorta (isometric contraction, Schild KB); format: cell-based; conditions: ratio of EC50 in presence and absence of test substance, 2 nM
T2 construct: the rat thoracic aorta corresponds to a tissue expressing mainly α1D-adrenoceptors; from tissue; host or cells: rat thoracic aorta rings
T2 sequence (P23944 1-561): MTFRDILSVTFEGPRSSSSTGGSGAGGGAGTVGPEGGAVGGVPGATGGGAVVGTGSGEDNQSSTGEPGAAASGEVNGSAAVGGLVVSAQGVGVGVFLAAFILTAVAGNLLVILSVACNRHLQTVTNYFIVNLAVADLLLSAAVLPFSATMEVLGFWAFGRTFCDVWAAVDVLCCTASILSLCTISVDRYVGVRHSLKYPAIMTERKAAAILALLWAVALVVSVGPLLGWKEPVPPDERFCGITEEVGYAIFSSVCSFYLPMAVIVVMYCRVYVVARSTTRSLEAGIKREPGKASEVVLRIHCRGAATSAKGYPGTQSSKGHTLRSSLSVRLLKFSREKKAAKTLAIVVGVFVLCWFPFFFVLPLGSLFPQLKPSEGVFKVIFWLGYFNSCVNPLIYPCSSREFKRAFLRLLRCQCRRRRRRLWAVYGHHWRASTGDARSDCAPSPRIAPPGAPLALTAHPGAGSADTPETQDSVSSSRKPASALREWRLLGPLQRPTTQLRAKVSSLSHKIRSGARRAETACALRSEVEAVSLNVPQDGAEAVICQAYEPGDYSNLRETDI

[2] = DU-145, 5-HT 1 μM + test substance 50 nM

| Compound | T (° C.) Basal Measure [1] | T (° C.) 30′ after LDT [1] | T (° C.) 60′ after LDT [1] | Proliferation percentage in relation to basel (100%) in the presence of LDT's, 5HT1A (5-HT1A receptors; [2]) | inhibition of the effect of the 5-HT1A receptors stimulus on proliferation (5-HT1A receptors) | CR ± EPM (α1D adrenoceptors) | Proliferation percentage in relation to basel (100%) in the presence of LDT's, 5HT1A (5-HT1A receptors; DU-145, 5-HT 1 μM + test substance 5 nM) |
| --- | --- | --- | --- | --- | --- | --- | --- |
| CCCCCN1CCN(c2ccccc2OC)CC1 [LDT 65] | 37.17 °C | 37.17 °C | 37.17 °C |  |  |  |  |
| CCCCCCN1CCN(c2ccccc2OC)CC1 [LDT 66] | 37.00 °C | 37.50 °C | 37.33 °C | 110.8 ± 7.7^b % | inhibited the effect |  |  |
| COc1cccc(CCN2CCN(c3ccccc3OC)CC2)c1 [LDT 3] | 35.33 °C | 35.50 °C | 35.50 °C | 96.9 ± 5.8^b % | inhibited the effect |  |  |
| CCOc1ccccc1N1CCN(CCc2ccc(OC)c(OC)c2)CC1 [LDT 245] |  |  |  |  |  | 3.9 ± 1.0 |  |
| COc1ccc(CCN2CCN(c3ccccc3OC)CC2)cc1OC [LDT 5] | 35.00 °C | 35.50 °C | 35.17 °C | 118.8 ± 9.9% |  |  |  |
| CCOc1ccccc1N1CCN(CCc2ccc3c(c2)OCO3)CC1 [LDT 8] | 35.67 °C | 35.67 °C | 35.50 °C |  |  |  | 138.4 ± 42.9% |
